Measured values taken from patent US20030045699A1, “Membrane receptors for steroids and sterols” (priority 2001, published 2003).

Test system: polypeptide according to the invention (membrane receptor for steroids and sterols)
Assay: Receptor binding studies (binding assay) with radiolabeled steroids and sterols
Design: species or system human
Conditions: qualitative statement in the description; no value given
Method: In addition, the invention relates to a test system for identifying effectors of a polypeptide according to the invention, whereby a polypeptide according to the invention is incubated as a complete or partial sequence thereof with a steroid, a steroid analog or a sterol, and the amount of bound steroid, steroid analog or sterol is detected. As a partial sequence, e.g., the area that comprises the “leucine-rich repeats” and the island domain or shorter strands thereof can be used. The binding of the effectors can be measured, e.g., by labeled substances being used and the labeling (e.g., radioactivity or fluorescence) being measured. A displacement reaction can also be measured, however, by a binding labeled steroid being used and the displacement of the labeling by the receptor being measured after the addition of the substances to be tested. […]
Crude extracts and cytosol fractions (0.04 ml) were incubated at 4° C. for 2 hours with 10 μl of radioactive steroid or sterol (concentration in the batch 10 nmol/l) either in the absence or in the presence of a 100× excess of a non-radioactive substance (for determining the unspecific bond). […] After centrifuging (5 minutes, 15,000 g), an aliquot of the supernatant was removed, and the radioactivity was determined by means of a scintillation counter. […]

CC(C)=CCC[C@@H](C)[C@H]1CC=C2C3=C(CC[C@@]21C)[C@@]1(C)CC[C@H](O)C(C)(C)[C@@H]1CC3 [FF-MAS]
binding of the substance by the polypeptide according to the invention: binds
